Results on 1 molecule are retold here after PMC10459042, “Synthesis of 1,2,3-Triazole-Containing Methoxylated Cinnamides and Their Antileishmanial Activity against the Leishmania braziliensis Species” (Pharmaceuticals, 2023).

What all share (assay type): cell-based, Leishmania braziliensis
Test [1] deals with L. braziliensis promastigotes infecting murine macrophages. The test is described as follows: Inhibition of infection (parasites pre-incubated with compound, then used to infect macrophages). The note with it: for Number of Amastigotes per Cell using pre-incubated parasites: untreated 8.9; for Percentage of Infected Macrophages Using Pre-Incubated Parasites: untreated 90.5. The protocol: To evaluate the inhibition of infection, promastigotes (5 × 10^6 cells) were first incubated with Compound 28 or AmpB (0, 1.0, 2.5 and 5.0 µg/mL in both cases) for 4 h at 24 °C; these were then used to infect murine macrophages (at a ratio of 10 parasites per macrophage) and incubated for 24 h at 37 °C in 5% CO2. Then, cells were fixed with 4% paraformaldehyde, washed, and stained with Giemsa. The percentage of infected macrophages and the number of recovered amastigotes were determined by counting 200 cells, in triplicate, using an optical microscope.

In test [2] the test system is L. braziliensis-infected macrophages. Kind of test: ROS levels in Leishmania-infected macrophages (H2DCFDA). The note with it: 5.0 µg/mL, 48 h at 37 °C. The procedure: Macrophages (1 × 10^6 cells/mL) were incubated in 96-well culture plates (Nunc, Nunclon, Roskilde, Denmark) and infected with L. braziliensis promastigotes (at a ratio of 10 parasites per cell). The infected macrophages were either left untreated or treated with Compound 28 (at a concentration of 5.0 µg/mL) for 48 h at 37 °C in 5% CO2. The cells were washed with PBS and incubated with 20 μmol/L H2DCFDA (Molecular Probes, Eugene, Oregon, USA) for 30 min in the dark. The fluorescence intensity was measured using a spectrofluorometer (FLx800; BioTek Instruments, Winooski, VT, USA) at 485 nm excitation and 528 nm emission. As a positive control, the infected macrophages were incubated with H2O2 at a concentration of 0.02 µg/mL (0.5 µmol/L). Parasites that were untreated with Compound 28 and not labeled with the fluorescent probe were used as the sample blank.
Figure 3 Production of ROS in L. braziliensis-infected macrophages treated with Compound 28. Leishmania braziliensis-infected macrophages (1 × 10^5 cells) were incubated with Compound 28 (5.0 µg/mL) for 48 h at 37 °C in a 5% CO2 environment. Subsequently, 2′,7′-dichlorodihydrofluorescein diacetate (H2DCFDA, 9.7 μg/mL) was added for 30 min under dark conditions. The fluorescence levels were measured in a spectrofluorometer at 485/528 nm. H2O2 (0.5 µmol/L) was used as a positive control. […]

In test [3] the test system is L. braziliensis promastigotes. The test is described as follows: Membrane permeability evaluation (propidium iodide). The note with it: one IC50 value, 48 h at 24 °C. The procedure: L. braziliensis promastigotes (1 × 10^7 cells/mL) were incubated with Compound 28 (at a concentration corresponding to one IC50 value) for 48 h at 24 °C. After washing with PBS, parasites (3 × 10^6 cells/well) were incubated with 1.0 µg/mL PI (Sigma-Aldrich, St. Louis, MO, USA) in the dark for 15 min. The samples were analyzed using a fluorometer microplate reader (FLx800, BioTek Instruments, Winooski, VT, USA), with excitation and emission wavelengths of […], respectively. Parasites that were killed by heating to 65 °C for 10 min were used as controls for the membrane permeabilization. Parasites that were untreated or treated with Compound 28 and not labeled with the fluorescent probe were used as the sample blank.
Figure 5 Effect of Compound 28 on parasite membrane permeability. Parasite promastigotes were either left untreated or treated with Compound 28 (at a concentration corresponding to the IC50 value) for 48 h. The PI dye fluorescence was measured fluorometrically at excitation and emission wavelengths of 540 and 600 nm, respectively. Parasites heated at 65 °C for 10 min were used as a positive control. The data is presented as the fold increase in PI fluorescence relative to the untreated control. (***), signifying p < 0.001, indicates a statistically significant difference compared with the non-treated control.

The mark [4] stands for this setting: parasites pre-incubated with 1.0 µg/mL at 24 °C.
[5] abbreviates: parasites pre-incubated with 2.5 µg/mL at 24 °C.
Setting [6] is: parasites pre-incubated with 5.0 µg/mL at 24 °C.

`CCN(CC)c1ccc2cc(-n3cc(CNC(=O)/C=C/c4ccc(OC)c(OC)c4)nn3)c(=O)oc2c1` [Compound 28, N-((1-(7-(diethylamino)-2-oxo-2H-chromen-3-yl)-1H-1,2,3-triazol-4-yl)methyl) (3,4-dimethoxy) cinnamide]: the figures for the “Number of Amastigotes per Cell using pre-incubated parasites” value in test [1] (setting [4]), in test [1] (setting [5]) and in test [1] (setting [6]) were 5.8, 4.9 and 3.6, respectively. Further, the “Percentage of Infected Macrophages Using Pre-Incubated Parasites” value in test [1] (setting [4]) worked out at 84.5%; in test [1] (setting [5]), 80.5%; in test [1] (setting [6]) it was 71.5%. Also, the “Increase in ROS levels in treated and infected cells compared with untreated cells” value in test [2] stood at 44.1%. For the same molecule, the “Fold increase in PI-fluorescence compared with untreated parasites” value in test [3] worked out at 2.3 fold.
